Experimental data taken from article PMC9456491, “Targeting the Mitochondrial Protein VDAC1 as a Potential Therapeutic Strategy in ALS” (International Journal of Molecular Sciences, 2022).

Tests used:
[1] = system: VDAC1 interaction with SOD1-derived peptides (spots 1C16 and 1C17); experiment: Inhibition of VDAC1 interaction with SOD1-derived peptides on peptide array; assay type: binding, rat; conditions: VDAC1 64 nM pre-incubated 1 h with 160 nM SOD1 protein, then 4 h with array; for inhibition of VDAC1 interaction with 1C17 peptide: spot 1C17; for decrease of VDAC1 interaction with both SOD1-derived peptides 1C16 and 1C17: spots by Image J
Protocol: Figure 2 VDAC1 interaction with SOD1-derived peptides is reduced by WT and mutant SOD1. VDAC1 (64 nM) was pre-incubated for 1 h without (A) or with 160 nM of SOD1^WT (B), SOD1^G93A (C), or SOD1^G85R (D), followed by incubation for 4 h with the peptide array and then blotted with anti-VDAC1 antibodies, as in Figure 1C. SOD1-derived sequences are circled. […] (G) Pull down with anti-SOD1 antibody was performed by incubating recombinant VDAC1 and SOD1 proteins (2 µg each) with increasing concentrations of SOD1-derived peptide (0, 5, 15, and 30 µM). Immunoblotting was used to determine the levels of SOD1^G93A and VDAC1 in the bound and unbound fraction of each immunoprecipitation experiment. […] (H) Quantification of immunoblotting bands with ImageJ software. Quantification analysis of the relative VDAC1 intensity was performed with one-way ANOVA. Bars represent mean ± SEM. TEXT PRINTED IN THE PICTURE: (F) SOD1-derived peptide: Kd= 4 μM
Customized 768-peptide sequences derived from 19 VDAC1-interacting proteins produced by INTAVIS Peptide Services (GmbH & Co. KG, Tübingen, Germany) were arrayed on a glass slide. The interaction of purified VDAC1 with glass-bound peptide arrays (BGUN_SB-002) was assessed by slide washing with TBST buffer (150 mM NaCl, 50 mM Tris/HCl, pH 7.4, and 0.1% Tween-20), followed by overnight incubation with blocking buffer (Tris-buffered saline, pH 7.8, containing 2.5% low-fat milk, w/v) at 4 °C. Next, the peptide array glass slides were incubated with purified VDAC1 (64 nM) in 400 µL of protein-interacting buffer (20 mM HEPES, 100 mM KCl, pH,7.4, PBS) at room temperature for 4 h in a humidified chamber. Then, the peptide array glass slides were washed (three times, 10 min each) with TBST and incubated overnight at 4 °C with anti-VDAC1 antibody against an internal sequence (ab15895) or against the N-terminus (ab154856) (1:5000). The peptide array glass slides were washed with 0.1% Tween-20 in TBS buffer/Tris-buffered saline (150 mM NaCl, 50 mM Tris/HCl, pH 7.4 TBST), followed by incubation for 2 h at RT with HRP-conjugated anti-mouse or anti-rabbit (1:10,000) or anti-goat (1:20,000) IgG as a secondary antibody. Enhanced chemiluminescent substrate (Pierce Chemical, Rockford, IL, USA) was used to detect HRP. The signal was captured in the dark using FUSION-FX (Vilber Lourmat) software.
The VDAC1 protein was purified from rat liver mitochondria, as previously described. Briefly, rat liver mitochondria (5 mg/mL) in 10 mM Tris-HCl, pH 7.2, were incubated with 2% LDAO on ice for 20 min, followed by centrifugation (30 min, 14,000× g), and the obtained supernatant was loaded onto a dry celite:hydroxyapatite (2:1) column. VDAC1 was eluted with a solution containing 2% LDAO, 10 mM Tris-HCl, pH 7.2, 50 mM NaCl, and 22 mM NaH2PO4. The VDAC1-containing fractions were dialyzed against 10 mM Tris-HCl, pH 7.2, and subjected to a second chromatography step on a carboxymethyl-cellulose (CMC) column from which VDAC1 was eluted with a solution containing 10 mM Tris-HCl, pH 7.2, 0.3% LDAO, and 500 mM NaCl. The VDAC1-containing fractions were collected and used for VDAC1 channel conductance and microscale thermophoresis (MST) assays.
Recombinant SOD1^WT, SOD1^G93A, and SOD1^G85R were purified as previously described. Briefly, the proteins were expressed as 6His-tagged (N-term) soluble proteins in BL21 cells, and the expression of the recombinant proteins was induced by addition of 0.5 mM IPTG, following purification using a 5mL HisTrap FF column (GE Healthcare, Chicago, IL, USA). The peak fractions were dialyzed overnight at 4 °C against a storage buffer (50 mM Na^+/phosphate, pH 7.6, 0.1 M NaCl, and 10% glycerol), concentrated by ultrafiltration (10 kDa cutoff, Millipore, USA), centrifuged at 110,000× g at 4 °C for 1 h using ultracentrifuge (Sorvall M120 Discovery, Waltham, MA, USA), and stored at −20 °C until use. […]

[2] = system: SH-SY5Y neuronal cells expressing mutant SOD1^G93A or SOD1^G37R; experiment: Rescue of mutant SOD1-induced cell death in transfected SH-SY5Y cells; assay type: cell-based; conditions: 4.5 × 10^4 cells/well, transfected with SOD1^G93A or SOD1^G37R, peptide 20 µM, 5 h, 24 h post-transfection, triplicates, n = 3, means ± SEM
Protocol: Figure 1 Identification of VDAC1 interacting sites in SOD1. (A) SH-SY5Y cells (4.5 × 10^4 cells/well in 24-well plates) were transfected with an empty plasmid or a plasmid encoding for mutant SOD1^G93A or SOD1^G37R. Then, 24 h post-transfection, the cells were incubated for 5 h with (10-20)N-Ter-Antp peptide (20 µM) and then analyzed for cell death. The results are from triplicates of different biological repeats (n = 3) and are presented as the means ± SEM. * p < 0.05. (B) Schematic presentation of peptide arrays and detection of VDAC1-interacting peptides. (C) Glass-bound peptide array consisting of 768 overlapping peptides derived from 19 VDAC1-interacting proteins were incubated for 4 h with purified VDAC1 (64 nM) and then blotted with anti-VDAC1 antibodies against an internal sequence (1:5000) or with antibodies against the VDAC1-N-terminus, followed by incubation with HRP-conjugated anti-mouse IgG and detection using a chemiluminescence kit. […]
SH-SY5Y and NSC-34 cells were grown at 37 °C and with 5% CO2 in Dulbecco’s modified Eagle medium (DMEM) supplemented with 10% tetracycline-free fetal bovine serum (FBS), L-Glutamine (2 mM), and penicillin (100 U/mL)/streptomycin (0.1 mg/mL). […] According to the manufacturer’s protocol, cell viability was analyzed using the CellTiter 96 AQueous one-solution cell proliferation assay (Promega) and plate reader at 490 nm.

[3] = ref [32]; cited from earlier work
From the text: In order to test whether a VDAC1-derived N-terminal peptide can rescue mutant SOD1 toxicity, we expressed two different SOD1 mutants (SOD1^G93A or SOD1^G37R) in SH-SY5Y neuronal cells. These expressed SOD1 mutant proteins decreased cell survival compared to control cells. […] It is important to note that in this peptide, the last six residues f ...

| Substance | inhibition of VDAC1 interaction with 1C17 peptide [1] | decrease of VDAC1 interaction with both SOD1-derived peptides 1C16 and 1C17 [1] | rescue of mutant SOD1-induced toxicity (cell survival) [2] | cell death activity [3] | inhibition of VDAC1 interaction with 1C16 peptide ([1]; spot 1C16) |
| --- | --- | --- | --- | --- | --- |
| SOD1^G85R: recombinant dismutase inactive SOD1 mutant, 6His-tagged (N-term) | at a similar level | decreased the VDAC1 interaction with both SOD1-derived peptides |  |  |  |
| SOD1^WT: recombinant wild type SOD1, 6His-tagged (N-term) | at a similar level | decreased the VDAC1 interaction with both SOD1-derived peptides |  |  |  |
| 1-MAVPPTYADLGKSARDVFTK-20-RQIKIWFQNRRMKWKK [(10–20)-N-Ter-Antp, VDAC1-N-terminus-derived peptide] |  |  | rescued mutant SOD1-induced toxicity increasing SH-SY5Y cell survival | lost its cell death activity |  |
| SOD1^G93A: recombinant dismutase active SOD1 mutant, 6His-tagged (N-term) | at a similar level | decreased the VDAC1 interaction with both SOD1-derived peptides |  |  | prevented the interaction of VDAC1 with the 1C16 peptide better than SOD1^WT and SOD1^G85R |
